Measurements from ChEMBL document CHEMBL1201862, “PubChem BioAssay data set” (2004).
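Grown in 96-well plates, cells were treated for 48 hours with each compound at five concentrations. Insufficient inhibition: endpoint recorded as highest concentration tested. GI50 marks 50% less growth.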 Active and inactive are the calls of the source. Rule as the data show it: active = GI50 up to about 1.1 µM and inactive = higher.

Key:
Test in all cases: inhibition of tumour cell growth, NCI panel, 48 h
[1] = test system: 786-0
[2] = test system: A549
[3] = test system: ACHN
[4] = test system: BT-549
[5] = test system: DU-145
[6] = test system: HCT-116
[7] = test system: HOP-62
[8] = test system: HOP-92
[9] = test system: HT-29
[10] = test system: KM12
[11] = test system: MDA-N
[12] = test system: Malme-3M
[13] = test system: NCI-H460
[14] = test system: RPMI-8226
[15] = test system: SF-295
[16] = test system: SF-539
[17] = test system: SNB-19
[18] = test system: SNB-75
[19] = test system: T47D
[20] = test system: SK-MEL-28

Row | SMILES | GI50 [1] | GI50 [2] | GI50 [3] | GI50 [4] | GI50 [5] | GI50 [6] | GI50 [7] | GI50 [8] | GI50 [9] | GI50 [10] | GI50 [11] | GI50 [12] | GI50 [13] | GI50 [14] | GI50 [15] | GI50 [16] | GI50 [17] | GI50 [18] | GI50 [19] | GI50 [20]
1 | Cc1ccc(C2(N3CCOCC3)OC(C)(C)c3cccc4cccc2c34)cc1 (configuration not stated) | 17.3 µM (inactive) | 12.9 µM (inactive) | 16.3 µM (inactive) | 17.3 µM (inactive) | 18 µM (inactive) | 17.1 µM (inactive) | 15.7 µM (inactive) | 11.9 µM (inactive) | 15.5 µM (inactive) | 21.1 µM (inactive) | 17.9 µM (inactive) | 16.8 µM (inactive) | 14.5 µM (inactive) | 16.2 µM (inactive) | 16.9 µM (inactive) | 17.9 µM (inactive) | 17.6 µM (inactive) | 15.4 µM (inactive) | 21.7 µM (inactive) | 
2 | CC(O)C1(CNc2cc(Cl)nc(N)n2)CC(CCc2ccccc2)C1 (configuration not stated) | 18.2 µM (inactive) | 10.6 µM (inactive) | 9.73 µM (inactive) | 15.9 µM (inactive) | 16.4 µM (inactive) | 8.28 µM (inactive) | 14.1 µM (inactive) | 12.2 µM (inactive) | 13 µM (inactive) | 14.5 µM (inactive) | 12.9 µM (inactive) | 13.3 µM (inactive) | 14 µM (inactive) | 11.6 µM (inactive) | 14.4 µM (inactive) | 16.6 µM (inactive) | 15.8 µM (inactive) | 15.5 µM (inactive) | 3.42 µM (inactive) | 14.3 µM (inactive)
3 | C/C(=N\NC(=S)NC(C)C)c1nc2cccnc2[nH]1 | 20.3 µM (inactive) | 31.5 µM (inactive) | 21.9 µM (inactive) | 15.5 µM (inactive) | 51.1 µM (inactive) | 11.3 µM (inactive) | 18 µM (inactive) | 39.9 µM (inactive) | 12.8 µM (inactive) | 65.8 µM (inactive) | > 100 µM (inactive) | 33.9 µM (inactive) | 14 µM (inactive) | > 100 µM (inactive) | 12 µM (inactive) | > 37.9 µM (inactive) | 30.9 µM (inactive) | 28.1 µM (inactive) | 0.33 µM (active) | > 100 µM (inactive)
4 | OC(CCN1CCN(CCOC(c2ccc(F)cc2)c2ccc(F)cc2)CC1)c1ccc(Br)cc1 (configuration not stated) | 2.68 µM (inactive) | 9.44 µM (inactive) | 4.76 µM (inactive) | 5.83 µM (inactive) | 6.21 µM (inactive) | 2.8 µM (inactive) | 6.12 µM (inactive) | 4.37 µM (inactive) | 3.32 µM (inactive) | 2.44 µM (inactive) | 2.61 µM (inactive) | 2.12 µM (inactive) | 2.42 µM (inactive) | 2.67 µM (inactive) | 4.62 µM (inactive) | 2.3 µM (inactive) | 7.6 µM (inactive) | 9.77 µM (inactive) | 3.05 µM (inactive) | 2.69 µM (inactive)
5 | Cc1c2c(n3c(nc4ccccc43)c1C#N)NCC2 | > 10 µM (inactive) | > 10 µM (inactive) | > 10 µM (inactive) | > 10 µM (inactive) | > 10 µM (inactive) | > 10 µM (inactive) | > 10 µM (inactive) | > 10 µM (inactive) | > 10 µM (inactive) | > 10 µM (inactive) | > 10 µM (inactive) | > 10 µM (inactive) | > 10 µM (inactive) | > 10 µM (inactive) | > 10 µM (inactive) | > 10 µM (inactive) | > 10 µM (inactive) | > 10 µM (inactive) | > 10 µM (inactive) | > 10 µM (inactive)
6 | CC1(C)C2C=C(CCN3CCOCC3)CC1C2 (configuration not stated) | > 100 µM (inactive) | > 100 µM (inactive) | > 100 µM (inactive) | > 100 µM (inactive) | > 100 µM (inactive) | > 100 µM (inactive) | > 100 µM (inactive) | 15.3 µM (inactive) | > 100 µM (inactive) | > 100 µM (inactive) | > 100 µM (inactive) | > 100 µM (inactive) | > 100 µM (inactive) | > 100 µM (inactive) | > 100 µM (inactive) | > 100 µM (inactive) | > 100 µM (inactive) | 71.3 µM (inactive) | > 100 µM (inactive) | > 100 µM (inactive)
7 | O=C(O)CSCC(=O)Nc1ccc2cccc3c2c1CC3 | > 100 µM (inactive) | > 100 µM (inactive) | > 100 µM (inactive) | > 100 µM (inactive) | > 100 µM (inactive) | > 100 µM (inactive) | > 100 µM (inactive) | > 100 µM (inactive) | > 100 µM (inactive) | > 100 µM (inactive) | > 100 µM (inactive) | > 100 µM (inactive) |  | > 100 µM (inactive) | > 100 µM (inactive) | > 100 µM (inactive) | > 100 µM (inactive) | > 100 µM (inactive) | > 100 µM (inactive) | > 100 µM (inactive)
8 | O=C(O)/C=C\C(=O)Nc1ccccn1 | > 100 µM (inactive) | > 100 µM (inactive) | > 100 µM (inactive) | > 100 µM (inactive) | > 100 µM (inactive) | > 100 µM (inactive) | > 100 µM (inactive) | > 100 µM (inactive) | > 100 µM (inactive) | > 100 µM (inactive) | > 100 µM (inactive) | > 100 µM (inactive) | > 100 µM (inactive) | > 100 µM (inactive) | > 100 µM (inactive) | > 100 µM (inactive) | > 100 µM (inactive) | > 100 µM (inactive) | > 100 µM (inactive) | > 100 µM (inactive)
9 | COc1cc(/C=C2\CCC(C)C3C2=NN(C(C)=O)C3c2cc(OC)c(OC)c(OC)c2)cc(OC)c1OC (configuration not stated) | > 79.6 µM (inactive) | > 100 µM (inactive) | 25.1 µM (inactive) | > 100 µM (inactive) | > 100 µM (inactive) | > 100 µM (inactive) | > 59.2 µM (inactive) | > 100 µM (inactive) | > 100 µM (inactive) | > 33 µM (inactive) | > 100 µM (inactive) | 43.6 µM (inactive) | > 100 µM (inactive) | 36.7 µM (inactive) | > 100 µM (inactive) | > 100 µM (inactive) | > 100 µM (inactive) | 15.8 µM (inactive) | 9.86 µM (inactive) | 6.93 µM (inactive)
10 | O=C(c1ccc(Cl)c(Cl)c1)N(Cc1cccnc1)C(=S)N(Cc1cccnc1)C(=O)c1ccc(Cl)c(Cl)c1 | 20.4 µM (inactive) | > 100 µM (inactive) | 18.8 µM (inactive) | 22.9 µM (inactive) | 33.2 µM (inactive) | 25.2 µM (inactive) | 27.4 µM (inactive) | 36.1 µM (inactive) | 24 µM (inactive) | 28.1 µM (inactive) | 23.9 µM (inactive) | 52.8 µM (inactive) | 44.7 µM (inactive) | 5.5 µM (inactive) | 24.4 µM (inactive) | 22.1 µM (inactive) | 27.9 µM (inactive) | 38.4 µM (inactive) | 26.7 µM (inactive) | 52.5 µM (inactive)
11 | C[C@H](CCc1nc(C#N)c(N)o1)[C@H]1CC[C@H]2[C@@H]3[C@@H](O)CC4C[C@@H](O)CC[C@]4(C)[C@H]3C[C@@H](O)[C@]12C (some centres not stated) | 19.2 µM (inactive) | 29.4 µM (inactive) | 26.4 µM (inactive) | 9.86 µM (inactive) | 28.1 µM (inactive) | 21.4 µM (inactive) | 26.5 µM (inactive) | 22.2 µM (inactive) | 20.2 µM (inactive) | 17.7 µM (inactive) | 25.9 µM (inactive) | 7.38 µM (inactive) | 21.9 µM (inactive) | 6.75 µM (inactive) | 22.8 µM (inactive) | 17.9 µM (inactive) | 23.9 µM (inactive) | 10.3 µM (inactive) | 27.5 µM (inactive) | 25.6 µM (inactive)
12 | CC(Br)C(=O)Nc1ccc(C(=O)O)c(O)c1 (configuration not stated) | 37.6 µM (inactive) | > 100 µM (inactive) | > 100 µM (inactive) | 37.2 µM (inactive) | > 100 µM (inactive) | 50.7 µM (inactive) | 34.8 µM (inactive) | 65.6 µM (inactive) | 62.4 µM (inactive) | 70.8 µM (inactive) | 34.6 µM (inactive) | 20.7 µM (inactive) | > 100 µM (inactive) | > 100 µM (inactive) | > 100 µM (inactive) | 38.6 µM (inactive) | 37.2 µM (inactive) | 43.5 µM (inactive) | > 100 µM (inactive) | 47.4 µM (inactive)
13 | CCn1sc2ccccc2c1=O | 2.34 µM (inactive) | 16.1 µM (inactive) | 7.62 µM (inactive) | 11.1 µM (inactive) | 20.4 µM (inactive) | 14.8 µM (inactive) | 14.7 µM (inactive) | 10.1 µM (inactive) | 14.4 µM (inactive) | 6.89 µM (inactive) | 4.05 µM (inactive) | 15.8 µM (inactive) | 32.1 µM (inactive) | 4.23 µM (inactive) | 29.1 µM (inactive) | 13.5 µM (inactive) | 11.3 µM (inactive) | 13.7 µM (inactive) | 7.93 µM (inactive) | 18.1 µM (inactive)
14 | O=c1[nH]c2ccc(Cl)cc2o1 | > 100 µM (inactive) | > 100 µM (inactive) | > 100 µM (inactive) | > 100 µM (inactive) | > 100 µM (inactive) | > 100 µM (inactive) | > 100 µM (inactive) | 17.5 µM (inactive) | > 100 µM (inactive) | > 100 µM (inactive) | > 100 µM (inactive) | > 100 µM (inactive) | > 100 µM (inactive) | > 100 µM (inactive) | > 100 µM (inactive) | > 100 µM (inactive) | > 100 µM (inactive) | > 100 µM (inactive) | > 100 µM (inactive) | 
